Values quoted from earlier work, collected in US9393243B1 (priority 2015, dated 2016).
Structures can show the parent of a compound that is named as a salt. Where two headings read alike, the source gives them in different places.

Experiments:
[1] = aqueous solutions, about 0.2 to about 1 weight percent
[2] = tested on: a variety of bacterial pathogens; details: typical value; T. L. Ke et al. 2001

Row | Compound | pH at which precipitation was observed ([1]; 5° C.) | pH at which precipitation was observed ([1]; room temperature) | MIC90 [2]
1 | O=C(O)c1cn(C2CC2)c2cc(N3CCNCC3)c(F)cc2c1=O [ciprofloxacin HCl] | above 5 | above 5.5 | 
2 | O=C(O)c1cn(C2CC2)c2cc(N3CCNCC3)c(F)cc2c1=O [ciprofloxacin, 1-cyclopropyl-6-fluoro-1,4-dihydro-4-oxo-7-(1-piperazinyl)-3-quinolinecarboxylic acid] |  |  | around 0.5 μg/g
3 | gentamycin |  |  | around 10 μg/gm
